Molecules are shown by their SMILES. Like-named read-outs stand apart in the source and are kept apart here.

The nature of data set [1]: Biodistribution of iodorotenol and iodorotenone compounds in rats (organs and blood weighed and counted). Conditions: for uptake in the heart relative to the Z isomer: twenty microcuries into tail vein. The procedure:
Evaluation of the iodorotenol and iodorotenone compounds. […] Twenty microcuries of the compound was injected into the rat tail vein. At various time points post injection (30 m, 1 h, 2 h, and 4 h) rats were euthanized and the organs and blood were weighed and counted.

Data set [2] is described as follows: Dual head planar whole body imaging in canines. Conditions: dogs; for heart uptake and retention (planar images): 4-6 mCi 123I compound iv in front leg vein, scans to 7 h (FIG. 17); for uptake in the thyroid: no thyroid blocking agent prior to the scan.
Method: Two 20-25 kg dogs were anesthetized with iv sodium pentathol and maintained on inhaled isoflurane. Four to six mCi of Z-[^123I]Iodorotenone or E-[^123I]Iodorotenone was injected in a front leg vein. Dual head planar imaging was carried out using the GE Millenium SPECT scanner with Hawkeye xray CT. The scanning protocol was serial 4 m whole body scans over the first hour, 8 m whole body scans from 1-2 h and 30 min whole body scans out to 7 h post injection of the tracer. […] No thyroid blocking agent was introduced prior to the scan.
Data set [3] has as its system isolated blood perfused rabbit heart. Particulars: cited from earlier work.

Consider `COc1cc2c(cc1OC)C1C(CO2)Oc2c(ccc3c2CC(C(C)=CI)O3)C1O` (stereo not drawn) [E-iodorotenol, E-7′-iodorotenol], for which the “uptake in the heart relative to the Z isomer” value in data set [1] was “two-fold increase”.
As to `COc1cc2c(cc1OC)[C@@H]1C(=O)c3ccc4c(c3O[C@@H]1CO2)C[C@H](/C(C)=C/I)O4` [E-iodorotenone, E-7′-iodorotenone], the “heart uptake, injected dose in the heart tissue” value in data set [1] (tail vein injection, at 1 hour) was determined as 6.5 % injected dose. The “uptake in the heart relative to the Z isomer” value in data set [1] is recorded as “nearly double”. Further, in data set [2], the “heart uptake and retention (planar images)” value was “greater heart uptake and retention”; the “uptake in the thyroid” value is “minimal”. In data set [2] (planar imaging post injection), the “time to which the heart is clearly visible” value was found to be 4.5 h.
For the compound `[C-]#[N+]CC(C)(C)OC.[C-]#[N+]CC(C)(C)OC.[C-]#[N+]CC(C)(C)OC.[C-]#[N+]CC(C)(C)OC.[C-]#[N+]CC(C)(C)OC.[C-]#[N+]CC(C)(C)OC.[Tc]` [Tc-99m sestamibi], the values for the net heart retention in data set [3] (at 1 min) and in data set [3] (at 26 min) were 0.41±0.11 and 0.27±0.11, respectively. Further, the extraction in data set [3] is listed as 0.48±0.10.
With `COc1cc2c(cc1OC)[C@@H]1C(=O)c3ccc4c(c3O[C@@H]1CO2)C[C@H](/C(C)=C\I)O4` [Z-iodorotenone, Z-7′-iodorotenone], in data set [2], the “heart uptake and retention (planar images)” value is given as “washed out of the heart faster”; the “uptake in the thyroid” value is “minimal”. In data set [2] (planar imaging, compared with the E isomer), the “clearance through the gallbladder and stomach” value was “more rapidly”.

The values are drawn from patent publication US8551448B2, “Rotanone analogs: method of preparation and use” (The Regents of the University of California, priority 2006, dated 2013).
